Assays:
[1] = tested on: IPOHE (Ipomoea hederacea); assay: Postemergence herbicidal evaluation; assay type: in vivo, (L.) Jacq.
How it was run: (§1)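 Seedlings grown about two weeks in flats, sprayed, then kept under standard greenhouse care. Rated visually 4–5 weeks after treatment on a 0–9 scale (stand, vigour, malformation, size, chlorosis, overall appearance) relative to untreated control; repeat tests averaged.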

[2] = tested on: ECHCG (Echinochloa crus-galli); assay: Postemergence herbicidal evaluation; assay type: in vivo, (L.) Beau
How it was run: as §1

[3] = tested on: SETVI (Setaria viridis); assay: Postemergence herbicidal evaluation; assay type: in vivo, (L.) Beau
How it was run: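 Postemergence foliar spray on two-week-old seedlings, dose equivalent to about 0.0040 to 1.000 kg/ha. Ratings use a 0-9 visual scale relative to control at four to five weeks.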

[4] = tested on: GLXMAW (Soybean, Williams); assay: Postemergence herbicidal evaluation; assay type: in vivo, Glycine max, (L.) Merr. cv Williams
How it was run: as §1

[5] = tested on: ORYSAT (Rice, Tebonnet); assay: Postemergence herbicidal evaluation; assay type: in vivo, Oryza sativa, (L.) Tebonnet
How it was run: as §1

[6] = tested on: TRZAWR (Wheat, Winter, cv Riband); assay: Postemergence herbicidal evaluation; assay type: in vivo, Triticum aestivum
How it was run: as §1

[7] = tested on: ZEAMX (Corn, Field); assay: Postemergence herbicidal evaluation; assay type: in vivo, Zea mays, L.
How it was run: as §1

[8] = tested on: ABUTH (Abutilon theophrasti); assay: Preemergence herbicidal evaluation; assay type: in vivo, Medic.; conditions: preemergence, rated 4-5 weeks after treatment
[9] = tested on: AMBEL (Ambrosia artemisifolia); assay: Preemergence herbicidal evaluation; assay type: in vivo, L.; conditions: preemergence, rated 4-5 weeks after treatment
How it was run: (§2)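 Visual 0–9 rating versus control (stand, vigor, malformation, size, chlorosis, overall appearance), scored four to five weeks post-treatment. Preemergence spray of aqueous acetone solution onto freshly seeded soil cups; plants grown under conventional greenhouse care.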

[10] = tested on: CASOB (Cassia obtusifolia); assay: Preemergence herbicidal evaluation; assay type: in vivo, L.; conditions: preemergence, rated 4-5 weeks after treatment
How it was run: as §2

[11] = tested on: CHEAL (Chenopodium album); assay: Preemergence herbicidal evaluation; assay type: in vivo, L.; conditions: preemergence, rated 4-5 weeks after treatment
How it was run: as §2

[12] = tested on: GALAP (Galium aparine); assay: Preemergence herbicidal evaluation; assay type: in vivo; conditions: preemergence, rated 4-5 weeks after treatment
How it was run: as §2

[13] = tested on: ECHCG (Echinochloa crus-galli); assay: Preemergence herbicidal evaluation; assay type: in vivo, (L.) Beau; conditions: preemergence, rated 4-5 weeks after treatment
How it was run: as §2

[14] = tested on: SETVI (Setaria viridis); assay: Preemergence herbicidal evaluation; assay type: in vivo, (L.) Beau; conditions: preemergence, rated 4-5 weeks after treatment
How it was run: as §2

[15] = tested on: ORYSAT (Rice, Tebonnet); assay: Preemergence herbicidal evaluation; assay type: in vivo, Oryza sativa, (L.) Tebonnet; conditions: preemergence, rated 4-5 weeks after treatment
[16] = tested on: TRZAWR (Wheat, Winter, cv Riband); assay: Preemergence herbicidal evaluation; assay type: in vivo, Triticum aestivum; conditions: preemergence, rated 4-5 weeks after treatment
How it was run: as §2

[17] = tested on: ECHORC (Echinochloa oryzoides); assay: Flooded paddy, preemergence weed control; assay type: in vivo, Echinochloa oryzoides (Ard.) Fritsch.; conditions: rated 3-4 weeks after treatment, 0-9 rating scale
How it was run: (§3)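 Ratings of 0-9 reflect visual comparison with a control for stand, vigor, deformity, size, chlorosis and overall look. Propagules were placed in shallow silt loam (top 0.5 cm) under a continuous 1.5–3 cm flood and grown in the greenhouse.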

[18] = tested on: CYPSE (Cyperus serotinus); assay: Flooded paddy, preemergence weed control; assay type: in vivo, Rottb.; conditions: rated 3-4 weeks after treatment, 0-9 rating scale
How it was run: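 Herbicidal effect was scored visually on a 0–9 scale against an untreated control 3–4 weeks after treatment. Compounds were applied preemergence as 50/50 v/v aqueous/acetone mixtures into flood water (1.5–3 cm deep over silt loam), at roughly 0.0080 to 0.1250 kg/ha active ingredient.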

[19] = tested on: MOOVA (Monochoria vaginalis); assay: Flooded paddy, preemergence weed control; assay type: in vivo, Presl.; conditions: rated 3-4 weeks after treatment, 0-9 rating scale
How it was run: as §3

CN(C(=O)c1nsc2ccc(-n3c(=O)cc(C(F)(F)F)n(C)c3=O)cc12)c1ccc(Cl)cc1 [Compound 18, 1,2-benzisothiazole-3-carboxanilide, 4′-chloro-5-[3,6-dihydro-3-methyl-2,6-dioxo-4-(trifluoromethyl)-1(2H)-pyrimidinyl]-N-methyl-]
5.5: Postemergence herbicidal rating, ORYSAT ([5]; rate 0.2500 kg/ha) | Postemergence herbicidal rating, ZEAMX ([7]; rate 0.1250 kg/ha)
2.0: Postemergence herbicidal rating, ORYSAT ([5]; rate 0.0320 kg/ha) | ECHCG preemergence herbicidal rating ([13]; Rate 0.1250 kg/ha)
9.0: Postemergence herbicidal rating, IPOHE ([1]; rate 0.0320 kg/ha) | Postemergence herbicidal rating, IPOHE ([1]; rate 0.0620 kg/ha) | Postemergence herbicidal rating, IPOHE ([1]; rate 0.1250 kg/ha) | Postemergence herbicidal rating, IPOHE ([1]; rate 0.2500 kg/ha) | Postemergence herbicidal rating, SETVI ([3]; rate 0.2500 kg/ha) | ABUTH preemergence herbicidal rating ([8]; Rate 0.0620 kg/ha) | ABUTH preemergence herbicidal rating ([8]; Rate 0.1250 kg/ha) | ABUTH preemergence herbicidal rating ([8]; Rate 0.2500 kg/ha) | AMBEL preemergence herbicidal rating ([9]; Rate 0.1250 kg/ha) | AMBEL preemergence herbicidal rating ([9]; Rate 0.2500 kg/ha) | CHEAL preemergence herbicidal rating ([11]; Rate 0.0620 kg/ha) | CHEAL preemergence herbicidal rating ([11]; Rate 0.1250 kg/ha) | CHEAL preemergence herbicidal rating ([11]; Rate 0.2500 kg/ha) | GALAP preemergence herbicidal rating ([12]; Rate 0.2500 kg/ha) | ECHCG preemergence herbicidal rating ([13]; Rate 0.2500 kg/ha) | SETVI preemergence herbicidal rating ([14]; Rate 0.1250 kg/ha) | SETVI preemergence herbicidal rating ([14]; Rate 0.2500 kg/ha) | herbicidal rating, ECHORC ([17]; rate 0.1250 kg/ha) | herbicidal rating, MOOVA ([19]; rate 0.0320 kg/ha) | herbicidal rating, MOOVA ([19]; rate 0.1250 kg/ha)
4.0: Postemergence herbicidal rating, TRZAWR ([6]; rate 0.0620 kg/ha) | TRZAWR preemergence herbicidal rating ([16]; Rate 0.1250 kg/ha) | herbicidal rating, CYPSE ([18]; rate 0.0320 kg/ha) | herbicidal rating, CYPSE ([18]; rate 0.1250 kg/ha)
5.0: Postemergence herbicidal rating, ECHCG ([2]; rate 0.2500 kg/ha) | Postemergence herbicidal rating, SETVI ([3]; rate 0.1250 kg/ha) | Postemergence herbicidal rating, ORYSAT ([5]; rate 0.1250 kg/ha) | Postemergence herbicidal rating, TRZAWR ([6]; rate 0.1250 kg/ha) | Postemergence herbicidal rating, ZEAMX ([7]; rate 0.0320 kg/ha) | Postemergence herbicidal rating, ZEAMX ([7]; rate 0.0620 kg/ha) | ORYSAT preemergence herbicidal rating ([15]; Rate 0.1250 kg/ha)
8.5: Postemergence herbicidal rating, GLXMAW ([4]; rate 0.2500 kg/ha)
3.0: Postemergence herbicidal rating, ORYSAT ([5]; rate 0.0620 kg/ha) | Postemergence herbicidal rating, TRZAWR ([6]; rate 0.0320 kg/ha)
1.0: CASOB preemergence herbicidal rating ([10]; Rate 0.1250 kg/ha) | CASOB preemergence herbicidal rating ([10]; Rate 0.2500 kg/ha)
6.0: Postemergence herbicidal rating, GLXMAW ([4]; rate 0.0320 kg/ha) | Postemergence herbicidal rating, TRZAWR ([6]; rate 0.2500 kg/ha) | herbicidal rating, ECHORC ([17]; rate 0.0320 kg/ha)
7.0: Postemergence herbicidal rating, ZEAMX ([7]; rate 0.2500 kg/ha) | AMBEL preemergence herbicidal rating ([9]; Rate 0.0620 kg/ha)
8.0: Postemergence herbicidal rating, GLXMAW ([4]; rate 0.0620 kg/ha) | Postemergence herbicidal rating, GLXMAW ([4]; rate 0.1250 kg/ha) | SETVI preemergence herbicidal rating ([14]; Rate 0.0620 kg/ha) | ORYSAT preemergence herbicidal rating ([15]; Rate 0.2500 kg/ha) | TRZAWR preemergence herbicidal rating ([16]; Rate 0.2500 kg/ha)
0.0: Postemergence herbicidal rating, ECHCG ([2]; rate 0.0320 kg/ha) | Postemergence herbicidal rating, ECHCG ([2]; rate 0.0620 kg/ha) | Postemergence herbicidal rating, ECHCG ([2]; rate 0.1250 kg/ha) | Postemergence herbicidal rating, SETVI ([3]; rate 0.0320 kg/ha) | Postemergence herbicidal rating, SETVI ([3]; rate 0.0620 kg/ha) | CASOB preemergence herbicidal rating ([10]; Rate 0.0620 kg/ha) | GALAP preemergence herbicidal rating ([12]; Rate 0.0620 kg/ha) | GALAP preemergence herbicidal rating ([12]; Rate 0.1250 kg/ha) | ECHCG preemergence herbicidal rating ([13]; Rate 0.0620 kg/ha) | ORYSAT preemergence herbicidal rating ([15]; Rate 0.0620 kg/ha) | TRZAWR preemergence herbicidal rating ([16]; Rate 0.0620 kg/ha) | herbicidal rating, ECHORC ([17]; rate 0.0080 kg/ha) | herbicidal rating, MOOVA ([19]; rate 0.0080 kg/ha)

Reference: US6706663B2, “Herbicidal 3-heterocyclic substituted benzisothiazole and benzisoxazole compounds” (Wyeth, priority 2000, dated 2004)
